Reference: US5990078A, “Means of increasing estrogen receptor levels in neural tissue” (The Trustees of Columbia University in the City of New York, priority 1996, dated 1999)
“Also recorded” adds a separate entry of the source.

Tests used:
ERKs = test: In-gel kinase assay of ERKs with MBP as substrate, cortical explants; assay type: cell-based
Experimental: (§1) Estrogen and the neurotrophins have important roles in the developing and adult central nervous system (CNS). […] The hypothesis that estrogen/neurotrophin receptor co-expression leads to reciprocal regulation at the level of signal transduction, through cross-coupling of converging estrogen and neurotrophin signaling pathways whose end-points in the nucleus may be the very same genes was tested. Postnatal day 2 cerebral cortex was maintained as organotypic explants in roller tube culture for 7 days.

PC12-E2 cells = test: Morphological study of neurite growth in PC12-E2 cells; assay type: cell-based
Source text: (§2) It has been previously reported that wild-type, differentiated PC12 pheochromocytoma cells express very low levels of estrogen receptors. Here it is reported that a PC12 cell variant, PC12-E2 (Wu, Bradshaw, J. Cell Physiol. 164:1995), is estrogen responsive and expresses high estrogen receptor level (≈50% of the levels observed in estrogen receptor over-expressing MCF-7 cells). Moreover, although tyrosine phosphorylation of the estrogen receptor appeared to be expressed constitutively, these cells responded to added estrogen. PC12-E2 responsiveness to estrogen was determined morphologically and by measuring estradiol-induced ERK activation. […] Preliminary co-precipitation experiments show an association between src and estrogen receptor, src with MEK (MAP Kinase/ERK-activating Kinase), and MEK with B-raf, MEK, which phosphorylates the ERKs on tyrosine residues, is known to exist as a complex consisting of at least hsp90 and B-raf.

trk receptors = test: Tyrosine phosphorylation of the trk receptors, cortical explants; assay type: cell-based
Experimental: as §1

ERKs 1 and 2 [1] = test: ERK activation in PC12-E2 cells; assay type: cell-based
Source text: as §2

ERK = ERK stimulation in wild-type, differentiated PC12 cells; assay type: cell-based
ERKs 1 and 2 [2] = test: Tyrosine phosphorylation of ERKs 1 and 2 in cerebral cortical explants; assay type: cell-based; settings: P2 cortical explants
Experimental: as §1

PC12 cells = test: Morphology / neurite differentiation of PC12 cells; assay type: cell-based, rat; settings: estrogen exposure
trkA mRNA = settings: adult female rat DRG neurons in vivo [90]; listed as estrogen; cited from earlier work
p75^NGFR mRNA [3] = settings: adult female rat DRG neurons in vivo [90]; cited from earlier work
p75^NGFR mRNA [4] = test: Northern blot analysis of p75NGFR mRNA in PC12 cells; assay type: cell-based, rat; settings: NGF-treated PC12 cells
Experimental: PC12 cells were cultured on collagen-coated coverslips or tissue culture dishes in phenol red-free RPMI 1640 (Gibco BRL) nutrient medium supplemented with 10% (heat-inactivated) gelded (steroid-deficient) horse serum (JRH Biological), according to a modification of standard procedures. In these experiments, fetal calf serum, which contains physiologic levels of estrogen, (32 pg/ml) was not used.
Total RNA, prepared by a modification of the Chomczynski and Sacchi method, was size-fractionated (10-20 μg/lane) on a 1.2% agarose-18% formaldehyde gel and capillary-transferred to nylon membrane (Hybond-N; Amersham). Filters were prehybridized (4-18 h) and hybridized (36-40 h) at 42° C. in 50% Formamide, 3× SSC, 0.1M Tris, 5× Denhardt's and 10% Dextran Sulfate. Probes were labeled with [α-^32 P]-dCTP by the random priming procedure (Random Priming kit, Boehringer Mannheim). trkA mRNA was identified by hybridization with pDM97, a 450 bp trkA-specific probe corresponding to the extracellular and transmembrane domains of the trkA gene [67; gift of L. F. Parada, NCI-FCRDC]. p75^NGFR was probed by hybridization with p5b, a 2 Kb probe corresponding to the extracellular domain of the p75^NGFR gene. Blots were washed first in 0.2×SSC and 0.5% SDS briefly at room temperature and then for 2 h at 60° C., with frequent changes of wash buffer. Filters were then exposed to film (Kodak X-Omat) between intensifying screens and stored at -70° C. for 1-4 days before developing.
Using a standard densitometry package (Jandel Scientific), optical density measurements were obtained from X-ray film. trkA and p75^NGFR transcript densities were normalized to an internal control to account for variation in the amount of RNA loaded.
Total RNA was analyzed by Northern blot analyses, using ^32 P-labeled cDNA probes for trkA and p75^NGFR.

estrogen receptor mRNA [5] = test: Semiquantitative RT-PCR of estrogen receptor mRNA in cortical and basal forebrain explant cultures; assay type: cell-based, rat; settings: cortical and basal forebrain explants, hrNGF 100 ng/mL
Source text: Time-pregnant rats (Sprague-Dawley) were obtained from Zivic (Miller, Pa.). Organotypic explant cultures were obtained from postnatal day (P) 2 rat brains (P1=day of birth) of both sexes. Brains were slice coronally into 360-μm thick sections using a brain slicer (Toran-Allerand, 1990). A total of four coronal sections from the periseptal region were isolated and dissected into four pairs of hemicoronal cortical [cingulate and neocortex, FIG. 6(a)] and basal forebrain [septum, nuclei of the diagonal band of Broca and ventral pallidum, FIG. 6(b)] sections. Hemicoronal explants were maintained in roller tube assemblies (Caeser et al., 1989; Gahwiler et al., 1991), on collagen coated coverslips for 8 days in vitro, in serum supplemented (25% gelded horse serum, JRH), steroid deficient and phenol red free medium containing 50% basal medium (Eagle's), 25% Hank's balanced salt solution (HBSS), and 0.65% glucose. […] Cultures were fed 3 times a week.
Estrogen receptor mRNA expression was assessed by semiquantitative RT-CPR, using RNA isolated from pooled cortical (two explants pooled/sample) and basal forebrain (four explants pooled/sample) cultures. PCR primers (gift of B. Schachter, Mount Sinai Hospital) were designed to amplify a 300 base pair (bp) sequence from the region coding for the ligand binding domain (Sohrabji et al., 1994b). […]

estrogen receptor mRNA [6] = test: Isotopic in situ hybridization of estrogen receptor mRNA in cortical explant cultures; assay type: cell-based, rat; settings: cortical explants, hrNGF 100 ng/mL
Source text: (§3) Time-pregnant rats (Sprague-Dawley) were obtained from Zivic (Miller, Pa.). Organotypic explant cultures were obtained from postnatal day (P) 2 rat brains (P1=day of birth) of both sexes. Brains were slice coronally into 360-μm thick sections using a brain slicer (Toran-Allerand, 1990). A total of four coronal sections from the periseptal region were isolated and dissected into four pairs of hemicoronal cortical [cingulate and neocortex, FIG. 6(a)] and basal forebrain [septum, nuclei of the diagonal band of Broca and ventral pallidum, FIG. 6(b)] sections. […]
Estrogen receptor mRNA was detected in cerebral cortical cultures in using […] oligonucleotide probes complementary to a sequence within rat estrogen receptor mRNA coding for hormone binding domain (Miranda et al., 1993b, 1994; Miranda and Toran-Allerand, 1992; Toran-Allerand et al., 1992b). […] Isotopically (^35 S)-labeled hybrids were detected in whole explant cultures by desiccating the cultures and apposing them to autoradiographic film (Kodak X-omat). The intensity of mRNA expression was quantified as the density of film exposure over the explant divided by the density over background using a standard morphometrics package (Jandel Scientific).

estrogen receptor = molecular target: T1, estrogen receptor (Rattus norvegicus, UniProt P06211); test: Modified nuclear binding assay, basal forebrain explant cultures; assay type: cell-based; set-up: endogenous in cells; settings: P2 rat basal forebrain explants, 8 days in vitro, hrNGF 100 ng/mL
T1 sequence (P06211 1-600): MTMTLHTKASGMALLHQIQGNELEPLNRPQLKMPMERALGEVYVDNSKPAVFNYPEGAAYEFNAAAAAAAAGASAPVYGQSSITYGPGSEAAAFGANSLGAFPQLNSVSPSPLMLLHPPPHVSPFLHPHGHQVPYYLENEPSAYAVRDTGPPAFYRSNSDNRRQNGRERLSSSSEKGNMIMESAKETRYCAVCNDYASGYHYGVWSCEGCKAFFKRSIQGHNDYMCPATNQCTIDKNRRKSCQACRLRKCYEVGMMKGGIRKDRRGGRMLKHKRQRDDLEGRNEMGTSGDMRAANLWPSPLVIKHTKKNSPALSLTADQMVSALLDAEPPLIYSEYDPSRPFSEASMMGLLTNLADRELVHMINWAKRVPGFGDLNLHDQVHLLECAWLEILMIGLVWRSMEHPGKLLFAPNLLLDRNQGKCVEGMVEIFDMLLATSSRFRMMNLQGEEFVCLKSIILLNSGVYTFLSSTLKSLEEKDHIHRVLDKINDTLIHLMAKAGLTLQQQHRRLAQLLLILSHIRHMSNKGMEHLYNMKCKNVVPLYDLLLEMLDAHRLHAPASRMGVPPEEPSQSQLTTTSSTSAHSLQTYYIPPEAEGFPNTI
Source text: as §3
Nuclear receptor binding sites were identified using previously published protocols (Sohrabji et al., 1994a,b) and were standardized for this experiment using both MCF-7 cells and hypothalamic tissue. […] Radioactivity was eluted from nuclear pellets with 95% ethanol (moxestrol is completely soluble in >50% ethanol) and the radioactivity counted in a liquid scintillation counter. […] Specific binding was determined as the difference between total binding and non-specific binding (in the presence of an unlabeled competing ligand) and the data expressed as femtomoles of specifically bound [^3 H] -moxestrol/mg DNA. […]

Row | Compound | Activity of phosphorylated ERKs in phosphorylating MBP vs untreated controls (ERKs) | Neurite outgrowth (PC12-E2 cells) | Tyrosine phosphorylation of the trk receptors (trk receptors) | Time to tyrosine phosphorylation of ERKs 1 and 2 (ERKs 1 and 2 [1]) [min] | Estradiol-induced ERK stimulation (ERK) | Persistence of tyrosine phosphorylation of the ERKs (ERKs 1 and 2 [2]) | Time of maximal tyrosine phosphorylation of the ERKs (ERKs 1 and 2 [2]) [min] | Onset of tyrosine phosphorylation of the ERKs (ERKs 1 and 2 [2]; 24 hrs estrogen and neurotrophin deprivation) [min] | Effect on morphology / neurite differentiation (PC12 cells) | Increase in trkA mRNA (trkA mRNA) | p75NGFR mRNA (p75^NGFR mRNA [3]) | p75NGFR mRNA level (p75^NGFR mRNA [4]; 1 day after estrogen treatment) | p75NGFR mRNA level (p75^NGFR mRNA [4]; 3 days of estrogen exposure) | p75NGFR mRNA level (p75^NGFR mRNA [4]; 3 days of estrogen exposure, 4320 min) | p75NGFR mRNA level (p75^NGFR mRNA [4]; 7 days of estrogen treatment) | Estrogen receptor mRNA (normalized to cyclophilin mRNA) vs control (estrogen receptor mRNA [5]) | Estrogen receptor mRNA, density of hybridization signal (estrogen receptor mRNA [6]) | Density of estrogen binding sites (estrogen receptor)
1 | C[C@]12CC[C@@H]3c4ccc(O)cc4CC[C@H]3[C@@H]1CC[C@@H]2O [estradiol, 17-β estradiol] | much more active | little effect | induced tyrosine phosphorylation | ≤ 15 | no estradiol-induced ERK stimulation was observed | at least 4 hrs. | 30 | ≤ 5 | no readily visible effects; also recorded: did not appear to influence visibly | two to three-fold | transient decrease | below basal levels | decreased by half | approximately 50 % of baseline | indistinguishable from basal levels; also recorded: no different from basal levels |  |  | 
2 | hrNGF: human recombinant NGF (gift of Louis Burton, Genetech) |  |  |  |  |  |  |  |  |  |  |  |  |  |  |  | no different; also recorded: did not lead to an alteration | No alterations; also recorded: did not lead to an alteration | did not significantly alter and not
